Test results reported in US6566554B1, “Aminobenzophenones as inhibitors of IL-1β and TNF-α” (Leo Pharmaceutical Products Ltd. a/s (Lovens Kemiske Fabrik …, priority 1999, dated 2003).

What was measured:
Assay type in all cases: cell-based
IL-1β secretion = assay: Inhibition of IL-1β secretion in LPS stimulated peripheral blood mononuclear cells; details: PBMC; LPS stimulated human peripheral blood mononuclear cells, 18 hours, ELISA; read-out: The median inhibition concentration (IC50, nM) of IL-1β
Protocol: (§1) To study the effect of the compound of the present invention in vitro the inhibition of the IL-1β and TNF-α secretion was measured using the following procedure:
(§2) Cytokine production was measured in the media from lipopolysaccharide (LPS) stimulated peripheral blood mononuclear cells. The mononuclear cells were isolated from human peripheral blood by Lymphoprep® (Nycomed, Norway) fractionation and suspended in RPMI 1640 (growth medium) with foetal calv serum (FCS, 2%), at a concentration of 5×10^5 cells/ml. The cells were incubated in 24-well tissue culture plates in 1 ml aliquots. Test compounds were dissolved in dimethylsulfoxide (DMSO, 10 mM) and were diluted with the medium. Compounds were added to the cells for 30 minutes, then LPS ([…] final concentration) was added. The plates were incubated for 18 hours, and the concentration of IL-1β and TNF-α in the medium was determined by enzyme-linked immunosorbent assays. The median inhibitory concentrations (IC50) of the compounds were calculated.

TNF-α secretion = assay: Inhibition of TNF-α secretion in LPS stimulated peripheral blood mononuclear cells; details: PBMC; LPS stimulated human peripheral blood mononuclear cells, 18 hours, ELISA; read-out: The median inhibition concentration (IC50, nM) of TNF-α
Protocol: as §1, §2

[1] = tested on: Human polymorphonuclear (PMN) granulocytes; assay: Inhibition of PMN superoxide secretion (ferricytochrome C reduction, TNF-α primed, fMLP stimulated); details: fMLP 10^−7 M, read-out: The median inhibition concentration (IC50, nM) of PMN-superoxide
Protocol: The compounds of the present invention also show similar activities in the ability to inhibit PMN (polymorphonuclear) superoxide secretion which is also indicative of potentially useful anti-inflammatory drugs. The compounds were tested using the following procedure. Human polymorphonuclear (PMN) granulocytes were isolated from human blood by dextran sedimentation, Lymphoprep® fractionation, and hypotonic lysis of contaminating erythrocytes. Superoxide anion generation was measured as the superoxide dismutase inhabitable reduction of ferricytochrome C (Madhu, S. B. et al, Inflammation, 16, 241, (1992)). The cells were suspended in Hank's balanced salt solution, and incubated for 10 minutes at 37° C. with test compounds. The cells were primed by the addition of TNF-α (3 ng/ml final concentration) for 10 minutes, and then ferricytochrome C, (final concentration 750 μg/ml), bovine serum albumin (BSA, final concentration 1 mg/ml) and formyl-methionyl-leucyl-phenylalanine (fMLP, final concentration 10^−7 M) were added for 3 minutes. The cells were chilled on ice, and were spun down. The optical densities in the cell-free supernatant was measured in a spectrophotometer. The median inhibitory concentration (IC50) of the compounds was calculated.

| IC50 (IL-1β secretion) | IC50 (TNF-α secretion) | IC50 [1] | SMILES |
| --- | --- | --- | --- |
| 6.3 nM | 6.3 nM | 5 nM | CCCCCCCC(=O)Nc1ccccc1Nc1ccc(C(=O)c2ccccc2C)c(Cl)c1 [Compound 102, 2′-[3-Chloro-4-(2-methylbenzoyl)-phenylamino]octananilide] |
| 200 nM | 25 nM | 63 nM | Cc1ccccc1C(=O)c1ccc(Nc2ccccc2NC(=O)CCC(=O)O)cc1Cl [Compound 101, N-[2-[3-Chloro-4-(2-methylbenzoyl)-phenylamino]phenyl]-succinamic Acid] |
